What was measured:
Assay in all cases: FFA sulfoconjugation assay (N6-MF-A formation with adenosine as scavenger)
Type in all cases: biochemical
rSult2a3 = target: T1, rSult2a3 (Rattus norvegicus, UniProt P22789)
T1 construct: made in house; host or cells: Salmonella typhimurium TA1538 (cytosolic fraction, enzyme not purified)
T1 sequence (P22789 2-284 limits assumed): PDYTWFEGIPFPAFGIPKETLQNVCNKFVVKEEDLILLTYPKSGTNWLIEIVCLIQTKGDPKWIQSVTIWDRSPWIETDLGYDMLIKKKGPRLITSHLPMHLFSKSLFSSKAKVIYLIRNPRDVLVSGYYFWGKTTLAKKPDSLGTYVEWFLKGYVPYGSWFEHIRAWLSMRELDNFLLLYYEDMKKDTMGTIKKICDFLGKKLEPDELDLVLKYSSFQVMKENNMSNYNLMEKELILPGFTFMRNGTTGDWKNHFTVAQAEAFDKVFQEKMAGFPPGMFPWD
Method in brief: (§1)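 Cytosols from S. typhimurium TA1538 expressing individual SULTs are incubated at 37 °C for 20 min with FFA plus 10 mM adenosine. Reactions are quenched in methanol containing [15N5]N6-MF-A, and supernatants are analysed by UPLC-MS/MS. Spontaneous, SULT-independent adduct formation is corrected using SULT-deficient cytosols.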

mSult1e1 = target: T2, mSult1e1 (Mus musculus, UniProt P49891)
T2 construct: made in house; host or cells: Salmonella typhimurium TA1538 (cytosolic fraction, enzyme not purified)
T2 sequence (P49891 1-295): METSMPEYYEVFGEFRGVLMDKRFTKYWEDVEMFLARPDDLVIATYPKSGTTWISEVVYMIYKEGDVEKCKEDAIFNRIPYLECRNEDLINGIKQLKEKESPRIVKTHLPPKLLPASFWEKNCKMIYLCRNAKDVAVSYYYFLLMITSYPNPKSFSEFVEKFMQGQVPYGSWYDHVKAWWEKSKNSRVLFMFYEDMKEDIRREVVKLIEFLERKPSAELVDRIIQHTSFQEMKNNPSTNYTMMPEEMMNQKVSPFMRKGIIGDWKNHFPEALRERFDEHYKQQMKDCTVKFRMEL
Method in brief: as §1

mSult2b1b = target: T3, mSult2b1b (Mus musculus, UniProt O35400)
T3 construct: made in house; host or cells: Salmonella typhimurium TA1538 (cytosolic fraction, enzyme not purified)
T3 sequence (O35400 1-338): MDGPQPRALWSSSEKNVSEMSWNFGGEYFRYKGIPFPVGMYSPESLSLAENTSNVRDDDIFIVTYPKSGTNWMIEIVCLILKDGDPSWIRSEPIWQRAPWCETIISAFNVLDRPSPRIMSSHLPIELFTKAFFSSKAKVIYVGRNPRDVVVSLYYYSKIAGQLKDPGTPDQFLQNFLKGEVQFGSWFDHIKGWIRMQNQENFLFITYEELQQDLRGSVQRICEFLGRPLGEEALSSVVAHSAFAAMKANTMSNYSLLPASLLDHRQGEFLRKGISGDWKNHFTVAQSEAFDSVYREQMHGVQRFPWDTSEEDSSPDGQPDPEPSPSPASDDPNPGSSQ
Method in brief: as §1

## OCc1ccco1 [FFA, furfuryl alcohol]
rSult2a3; 0.1 mM FFA
  Rate of N6-MF-A formation: 48.3 ± 1.3 fmol N ^6-MF-A/mg/min
rSult2a3; 1 mM FFA
  Rate of N6-MF-A formation: 461 ± 8 fmol N ^6-MF-A/mg/min
rSult2a3; 10 mM FFA
  Rate of N6-MF-A formation: 3,420 ± 30 fmol N ^6-MF-A/mg/min
mSult1e1; 0.1 mM FFA
  Rate of N6-MF-A formation: <18 fmol N ^6-MF-A/mg/min
mSult1e1; 1 mM FFA
  Rate of N6-MF-A formation: 49.3 ± 1.2 fmol N ^6-MF-A/mg/min
mSult1e1; 10 mM FFA
  Rate of N6-MF-A formation: 425 ± 3 fmol N ^6-MF-A/mg/min
mSult2b1b; 0.1 mM FFA
  Rate of N6-MF-A formation: <18 fmol N ^6-MF-A/mg/min
mSult2b1b; 1 mM FFA
  Rate of N6-MF-A formation: <20 fmol N ^6-MF-A/mg/min
mSult2b1b; 10 mM FFA
  Rate of N6-MF-A formation: <44 fmol N ^6-MF-A/mg/min

— publication PMC4710668, “Bioactivation of food genotoxicants 5-hydroxymethylfurfural and furfuryl alcohol by sulfotransferases from human, mouse and rat: a comparative study” (Archives of Toxicology, 2014)
